Test results published in patent US20030039957A1, “Functional protein expression for rapid cell-free phenotyping” (priority 2000, published 2003).
≈ marks a conversion by molar mass, not a printed value. Read-outs that look alike come from different tables or passages of the source.

Columns and labels:
[1] = test system: HIV reverse transcriptase, patient-derived protein; type: biochemical, HIV-1
Excerpt: The PCR-generated DNA templates were expressed into HIV reverse transcriptase and protease using a coupled reticulocyte lysate system, TNT T7 Quick for PCR DNA (Promega, Madison, Wis.). Sizes of the proteins, as well as a confirmation of their integrity, was confirmed by Western Blot.

HIV = details: cited from earlier work
wild-type DNA Gyrase A = biological target: T1, wild-type DNA Gyrase A (Streptococcus pneumoniae serotype 4, UniProt P0A4L9+P72524); assay: Binding assays (affinity), wild-type gyrase A
T1 construct: A 100 kDa protein, corresponding to the DNA gyrase A protein, was produced from this eukaryotic expression system; made in house; host or cells: cell-free coupled reticulocyte lysate (TNT T7 Quick for PCR DNA, Promega)
Method: (§1) The functional activity of the purified mutant DNA gyrase A protein obtained from the fluoroquinolone resistant Streptococcus pneumoniae was compared to wild-type DNA gyrase A protein in supercoiling inhibition assays and DNA cleavage assays as described in Pan et al., and Barnard et al., supra. A concentration range of antibiotics was added to contact both the wild-type and mutant proteins. In addition, the affinities for each antibiotic and both the wild-type and mutant proteins were derived according to the method described in Roychoudhury, et al., supra.

mutant DNA Gyrase A = assay: Binding assays (affinity), mutant gyrase A; design: species or system Streptococcus pneumoniae
Method: as §1

[2] = test system: mutant DNA gyrase A protein; assay: Supercoiling inhibition and DNA cleavage assays; type: biochemical, Streptococcus pneumoniae; details: for MIC relative to maximal serum drug concentrations reported for standard dosage regimens: enzyme inhibition or DNA cleavage assays
Method: as §1

[3] = test system: DNA gyrase versus topoisomerase IV; assay: Ratio of affinity parameter, DNA gyrase to control protein topoisomerase IV; type: binding, Streptococcus pneumoniae
S. cerevisiae AD1-8u(−) = details: Nakamura 2001; cited from earlier work
[4] = test system: strain AD 1002 overexpressing C. albicans Cdr1p; details: strain AD 1002 overexpressing Cdr1p, Nakamura 2001; cited from earlier work
[5] = biological target: T2, mutant lanosterol 14 alpha-demethylase proteins (Candida albicans, UniProt P10613); assay: Prevention of CO-complex formation with reduced cytochrome P450, mutant; type: binding, C. albicans; details: mutant proteins
T2 construct: IC50; other: mutant proteins; other: at 100 nM; A 60 kDa protein, corresponding to the lanosterol 14 alpha-demethylase protein, was produced from this eukaryotic expression system
Method: (§2) Microsomes were isolated from C. albicans as described in Marichal, P., et al., Microbiology (1999), 145, 2701-2713, incorporated herein by reference. Prevention of CO-complex formation in the reduced microsomal cytochrome P450 preparation provides an assay that can be used to test the affinity of the protein for an azole. The P-450 content and the effects of azoles on the interaction of CO with the reduced haem iron of P-450 were measured as described in Vanden Bossche, H., et al., Drug Dev Res, 8:287-298 (1986), incorporated herein by reference. The assay employed 0.1 nmol cytochrome P450 and 100 pM to 100 μM ranges of the anti-fungal compounds itraconazole and fluconazole.

[6] = test system: mutant lanosterol 14 alpha-demethylase proteins; assay: as above; type: binding, C. albicans; details: mutant versus wild-type
Method: as §2

[7] = biological target: T3, wild-type lanosterol 14 alpha-demethylase protein (Candida albicans, UniProt P10613); assay: Prevention of CO-complex formation with reduced cytochrome P450, wild-type; type: binding, C. albicans; design: A 60 kDa protein, corresponding to the lanosterol 14 alpha-demethylase protein, was produced from this eukaryotic expression system; made in house; details: wild-type proteins
Method: as §2

[8] = test system: patient derived HCV NS5B RNA-dependent RNA polymerase; type: biochemical, hepatitis C virus
[9] = biological target: wild-type HCV NS5B RNA-dependent RNA polymerase (Hepatitis C virus genotype 2b, UniProt Q9DHD6); type: biochemical
[10] = biological target: T3, wild-type lanosterol 14 alpha-demethylase protein; design: A 60 kDa protein, corresponding to the lanosterol 14 alpha-demethylase protein, was produced from this eukaryotic expression system; made in house; host or cells: cell-free coupled reticulocyte lysate (TNT T7 Quick for PCR DNA, Promega); details: typically reported; cited from earlier work
[11] = biological target: wild-type HBV polymerase (HBV-WT) (Hepatitis B virus genotype A2 subtype adw2, UniProt P03159); assay: DNA polymerase assay (non-radioactive, sandwich ELISA) with cell-free expressed HBV polymerase; details: read-out: IC50, inhibition of DNA polymerase activity, FIG. 3, approximate
wild-type HBV polymerase (HBV-WT), sequence (P03159 whole entry): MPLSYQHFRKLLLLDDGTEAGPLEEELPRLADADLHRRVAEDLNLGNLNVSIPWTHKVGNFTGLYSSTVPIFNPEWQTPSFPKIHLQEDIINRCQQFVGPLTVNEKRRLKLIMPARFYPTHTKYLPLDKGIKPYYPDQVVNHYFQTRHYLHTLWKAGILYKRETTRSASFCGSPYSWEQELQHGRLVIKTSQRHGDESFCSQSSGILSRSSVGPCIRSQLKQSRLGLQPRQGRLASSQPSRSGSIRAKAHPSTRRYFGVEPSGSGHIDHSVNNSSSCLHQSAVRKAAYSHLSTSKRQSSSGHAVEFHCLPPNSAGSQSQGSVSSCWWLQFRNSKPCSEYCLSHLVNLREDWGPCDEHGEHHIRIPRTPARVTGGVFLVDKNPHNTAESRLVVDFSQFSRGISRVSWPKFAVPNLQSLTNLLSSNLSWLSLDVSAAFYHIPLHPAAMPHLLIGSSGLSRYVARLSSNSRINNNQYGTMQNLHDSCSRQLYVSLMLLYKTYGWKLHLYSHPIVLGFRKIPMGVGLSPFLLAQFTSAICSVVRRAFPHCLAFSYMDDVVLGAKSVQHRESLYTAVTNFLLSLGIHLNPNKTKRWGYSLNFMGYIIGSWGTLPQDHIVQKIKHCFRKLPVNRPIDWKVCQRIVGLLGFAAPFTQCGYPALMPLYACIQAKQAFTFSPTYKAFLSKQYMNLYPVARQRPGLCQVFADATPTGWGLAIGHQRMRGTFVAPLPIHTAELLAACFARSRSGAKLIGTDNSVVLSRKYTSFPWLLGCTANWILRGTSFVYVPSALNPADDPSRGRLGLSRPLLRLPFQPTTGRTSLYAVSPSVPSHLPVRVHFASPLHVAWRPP
Excerpt: A sensitive DNA polymerase assay (Roche Molecular Biochemicals, Indianapolis, Ind.) was used to determine the DNA polymerase activity of the expressed HBV polymerase proteins. […] The DNA polymerase assay as shown provides a non-radioactive assay, which measures the ability of the enzyme to digoxigenin and biotin labeled nucleotides into freshly synthesized DNA. The detection of synthesized DNA as a parameter for DNA polymerase activity follows a sandwich ELISA protocol—biotin labeled nucleic acid binds the surface of a microtiter plate coated with streptavidin. An anti-digoxigenin antibody conjugated to peroxidase is incubated with the nucleic acid. Upon addition of the peroxidase substrate, a color change occurs corresponding to the peroxidase activity, which is detected by a microplate ELISA reader. The absorbance samples is directly correlated to the level of DNA polymerase activity in the sample. […] In FIG. 1, HBV-WT refers to the wild-type HBV polymerase. […] PC and NC refer respectively to positive and negative controls. Briefly, the positive control includes Klenow enzyme in polymerase buffer. The negative control includes reticulcyte lysate without the DNA amplicon.
Inhibition of DNA polymerase activity (%) was plotted against compound concentration. […]

T3 sequence (P10613 whole entry): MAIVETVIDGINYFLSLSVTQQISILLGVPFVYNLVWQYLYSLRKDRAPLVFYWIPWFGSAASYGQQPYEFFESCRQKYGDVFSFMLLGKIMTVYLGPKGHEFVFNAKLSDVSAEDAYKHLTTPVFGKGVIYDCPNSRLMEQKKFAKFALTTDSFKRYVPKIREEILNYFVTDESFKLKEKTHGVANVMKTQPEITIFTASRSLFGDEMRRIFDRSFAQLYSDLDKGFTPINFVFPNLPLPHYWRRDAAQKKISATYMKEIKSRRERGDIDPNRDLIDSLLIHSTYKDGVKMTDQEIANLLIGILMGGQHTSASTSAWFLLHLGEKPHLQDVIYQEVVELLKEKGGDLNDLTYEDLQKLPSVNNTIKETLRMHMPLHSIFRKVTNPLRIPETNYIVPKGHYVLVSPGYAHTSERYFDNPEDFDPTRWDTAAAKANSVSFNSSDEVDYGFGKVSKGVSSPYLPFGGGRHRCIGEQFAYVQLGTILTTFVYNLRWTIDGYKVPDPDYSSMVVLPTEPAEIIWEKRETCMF
T2 sequence (P10613 whole entry, looked up, stated change not applied): as the sequence (P10613 whole entry) above
wild-type HCV NS5B RNA-dependent RNA polymerase, sequence (Q9DHD6 2443-3033 limits assumed): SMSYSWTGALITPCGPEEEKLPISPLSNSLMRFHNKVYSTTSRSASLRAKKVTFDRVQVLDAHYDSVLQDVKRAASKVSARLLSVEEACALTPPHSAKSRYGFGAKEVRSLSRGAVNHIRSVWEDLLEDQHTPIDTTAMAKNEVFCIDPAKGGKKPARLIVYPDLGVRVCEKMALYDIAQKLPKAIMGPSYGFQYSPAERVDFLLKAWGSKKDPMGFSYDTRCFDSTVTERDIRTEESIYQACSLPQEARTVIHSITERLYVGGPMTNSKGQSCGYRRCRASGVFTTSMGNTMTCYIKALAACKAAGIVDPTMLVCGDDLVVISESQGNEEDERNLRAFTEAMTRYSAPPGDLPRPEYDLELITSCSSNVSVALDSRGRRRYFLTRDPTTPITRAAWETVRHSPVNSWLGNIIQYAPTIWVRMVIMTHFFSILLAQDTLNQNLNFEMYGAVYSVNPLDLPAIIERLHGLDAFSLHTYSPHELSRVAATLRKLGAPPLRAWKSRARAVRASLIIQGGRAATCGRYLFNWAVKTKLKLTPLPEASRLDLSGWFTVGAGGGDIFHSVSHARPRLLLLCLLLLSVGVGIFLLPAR
T1 sequence (P0A4L9 whole entry): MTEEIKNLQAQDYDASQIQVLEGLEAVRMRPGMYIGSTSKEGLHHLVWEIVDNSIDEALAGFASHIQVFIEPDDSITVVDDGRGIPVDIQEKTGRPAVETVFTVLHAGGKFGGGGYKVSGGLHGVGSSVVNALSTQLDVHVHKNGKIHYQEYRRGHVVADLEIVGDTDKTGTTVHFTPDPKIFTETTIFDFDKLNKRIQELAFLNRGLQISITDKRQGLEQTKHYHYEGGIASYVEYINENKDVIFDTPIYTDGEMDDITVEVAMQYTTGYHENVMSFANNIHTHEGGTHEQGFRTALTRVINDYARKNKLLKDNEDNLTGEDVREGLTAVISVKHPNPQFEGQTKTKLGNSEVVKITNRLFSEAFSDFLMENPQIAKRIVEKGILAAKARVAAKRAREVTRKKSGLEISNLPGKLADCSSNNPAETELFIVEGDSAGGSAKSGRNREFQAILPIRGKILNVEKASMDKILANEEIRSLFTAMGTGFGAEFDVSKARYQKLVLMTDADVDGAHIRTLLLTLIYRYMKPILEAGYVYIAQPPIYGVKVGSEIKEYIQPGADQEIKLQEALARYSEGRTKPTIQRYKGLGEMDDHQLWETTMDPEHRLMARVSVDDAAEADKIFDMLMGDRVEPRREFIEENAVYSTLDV
T1 sequence (P72524 whole entry): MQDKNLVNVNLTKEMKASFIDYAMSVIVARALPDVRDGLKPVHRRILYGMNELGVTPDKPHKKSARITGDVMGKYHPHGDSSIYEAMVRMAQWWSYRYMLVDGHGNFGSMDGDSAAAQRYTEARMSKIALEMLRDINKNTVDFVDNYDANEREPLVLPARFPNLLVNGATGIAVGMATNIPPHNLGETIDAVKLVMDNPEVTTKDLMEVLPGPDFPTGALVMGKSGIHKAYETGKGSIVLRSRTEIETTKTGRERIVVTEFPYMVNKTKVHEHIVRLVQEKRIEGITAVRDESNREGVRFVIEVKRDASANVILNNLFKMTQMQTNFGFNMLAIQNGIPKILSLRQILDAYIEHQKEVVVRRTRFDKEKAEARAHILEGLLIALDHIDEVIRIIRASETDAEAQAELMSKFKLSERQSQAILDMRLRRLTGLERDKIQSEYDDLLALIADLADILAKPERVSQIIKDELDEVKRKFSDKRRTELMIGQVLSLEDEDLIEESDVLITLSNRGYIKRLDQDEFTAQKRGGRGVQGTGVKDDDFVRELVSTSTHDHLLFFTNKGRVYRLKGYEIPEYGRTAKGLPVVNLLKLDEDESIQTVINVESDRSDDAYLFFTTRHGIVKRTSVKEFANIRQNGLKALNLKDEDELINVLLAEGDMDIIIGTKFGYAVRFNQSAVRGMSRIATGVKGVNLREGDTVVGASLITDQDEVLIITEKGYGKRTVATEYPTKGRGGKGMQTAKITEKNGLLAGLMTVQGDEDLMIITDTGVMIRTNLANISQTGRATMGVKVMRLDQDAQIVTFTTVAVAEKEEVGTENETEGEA

Cc1cn([C@H]2C[C@H](N=[N+]=[N-])[C@@H](CO)O2)c(=O)[nH]c1=O [AZT, zidovudine]
difference in the IC50 value, patient sample versus wild-type [1]: five-fold
reduction of virus replication (HIV): about 90%

NC1CCN(c2c(F)cc3c(=O)c(C(=O)O)cn(C4CC4)c3c2Cl)C1 (centres unmarked) [clinafloxacin]
affinity compared with ciprofloxacin, trovafloxacin, gatifloxacin, gemifloxacin and moxifloxacin (wild-type DNA Gyrase A): higher affinities
affinity compared with ciprofloxacin, trovafloxacin, gatifloxacin, gemifloxacin and moxifloxacin (mutant DNA Gyrase A): higher affinities
MIC relative to maximal serum drug concentrations reported for standard dosage regimens [2]: below the maximal serum concentrations
ratio of the calculated affinity parameter for DNA gyrase to that for topoisomerase IV, compared with ciprofloxacin and trovafloxacin [3]: lower

OC(Cn1cncn1)(Cn1cncn1)c1ccc(F)cc1F [fluconazole]
MIC(80), MIC at which 80% of cells were inhibited (S. cerevisiae AD1-8u(−)): 0.625 µg/mL
MIC(80) [4]: 30 µg/mL (≈ 98 µM)
IC50 [5]: ~4.88 µM
range of IC50 values, wild-type to mutant [6]: more than 100 fold
IC50 [7]: 0.04 µM

COc1c(N2CCNC(C)C2)c(F)cc2c(=O)c(C(=O)O)cn(C3CC3)c12 (centres unmarked) [gatifloxacin]
MIC relative to maximal serum drug concentrations reported for standard dosage regimens [2]: above the maximal serum drug concentrations
ratio of the calculated affinity parameter for DNA gyrase to that for topoisomerase IV, compared with ciprofloxacin and trovafloxacin [3]: lower

CO/N=C1\CN(c2nc3c(cc2F)c(=O)c(C(=O)O)cn3C2CC2)CC1CN (centres unmarked) [gemifloxacin]
MIC relative to maximal serum drug concentrations reported for standard dosage regimens [2]: below the maximal serum concentrations

CN1C(=O)[C@]23CC4=CC=C[C@H](O)[C@H]4N2C(=O)[C@@]1(CO)SS3 [gliotoxin]
effect on RdRp activity [8]: inhibited HCV NS5B RdRp of both wild-type and patient derived proteins in a dose-dependent manner
effect on RdRp activity [9]: inhibited HCV NS5B RdRp of both wild-type and patient derived proteins in a dose-dependent manner

Cc1c(F)c(N2CCNC(C)C2)cc2c1c(=O)c(C(=O)O)cn2C1CC1 (centres unmarked) [grepafloxacin]
MIC relative to maximal serum drug concentrations reported for standard dosage regimens [2]: above the maximal serum drug concentrations

CCC(C)n1ncn(-c2ccc(N3CCN(c4ccc(OCC5COC(Cn6cncn6)(c6ccc(Cl)cc6Cl)O5)cc4)CC3)cc2)c1=O (centres unmarked) [itraconazole]
IC50 [10]: 0.01 to 0.05 µM
IC50 [5]: 0.03 to 0.075 µM

CC(=O)N1CCN(c2ccc(OCC3COC(Cn4ccnc4)(c4ccc(Cl)cc4Cl)O3)cc2)CC1 (centres unmarked) [ketoconazole]
MIC(80) [4]: 0.5 µg/mL (≈ 0.941 µM)

Nc1ccn([C@@H]2CS[C@H](COP(=O)(O)OP(=O)(O)OP(=O)(O)O)O2)c(=O)n1 [lamivudine-TP]
IC50 [11]: ~0.05 µM

CN[C@@H](C)[C@@H]1CCN(c2c(F)cc3c(=O)c(C(=O)O)cn(C4CC4)c3c2OC)C1 [premafloxacin]
fold increase in inhibitory concentration of mutant versus wild-type enzyme [2]: 32 fold

NC(=O)c1ncn([C@@H]2O[C@H](COP(=O)(O)OP(=O)(O)OP(=O)(O)O)[C@@H](O)[C@H]2O)n1 [ribavirin triphosphates]
effect on RdRp activity [8]: no inhibitory effect
effect on RdRp activity ([9]; wild-type NS5B protein): no inhibitory effect

C[C@@H]1CN(c2c(F)c(N)c3c(=O)c(C(=O)O)cn(C4CC4)c3c2F)C[C@H](C)N1 [sparfloxacin]
fold increase in inhibitory concentration of mutant versus wild-type enzyme [2]: about 4 fold

N[C@@H]1[C@H]2CN(c3nc4c(cc3F)c(=O)c(C(=O)O)cn4-c3ccc(F)cc3F)C[C@@H]12 [trovafloxacin]
MIC relative to maximal serum drug concentrations reported for standard dosage regimens [2]: above the maximal serum drug concentrations
